Reference: US12134622B1, “2-benzo-[3,4-b]pyridine-[b,g]indeno[1,2;3,4]fluoreno-[1,2-d]oxonine-5,11,16,21-tetraone as an antimicrobial compound” (KING FAISAL UNIVERSITY, priority 2023, dated 2024)

How the values were obtained:
[1] = tested on: Staphylococcus aureus; test: Antimicrobial screening, agar dilution method; type: cell-based; conditions: after 10, 20, 40 and 60 minutes at all dilutions 1:100, 1:200, 1:400, 1:800
Procedure: (§1) The antibacterial properties of the synthesized compound 2-benzo-[3,4-b]pyridine-[b,g]indeno[1′,2′:3,4]fluoreno-[1,2-d]oxonine-5,11,16,21-tetraone were studied by the method of agar dilution. Test solutions of each compound was prepared in concentration of 1% using dimethylformamide as a solvent then they are diluted in physiological solution to obtain the final experimental dilutions 1:100, 1:200, 1:400, 1:800. The effect of these substances are compared with furacillin in a controllable study. The testing microbes used were gram positive bacteria Staphylococcus aureus, gram negative bacteria Pseudomonas aeruginosa and Escherichia coli and Candida albicans fungus. The experiments used for this survey were meat-pentonlu agar (EPA) for cultivation of bacteria and Saburo environment for the fungus. Each experiment used 1 mL of test solution on each plate […]. Two drops of emulsified with microbes feel were added. All experimental samples were taken from the agar after 10, 20, 40, 60 minutes in the environment on the basis of Patrk planted. The bacteria were cultivated at a temperature of 37° C. for 1 day and the mushroom was kept in a thermostat for 2 hours at a temperature of 28° C. Then results were checked.

[2] = tested on: Pseudomonas aeruginosa; test: Antimicrobial screening, agar dilution method; type: cell-based; conditions: after 10, 20, 40 and 60 minutes at all dilutions 1:100, 1:200, 1:400, 1:800
Procedure: as §1

[3] = tested on: Candida albicans; test: Antimicrobial screening, agar dilution method; type: cell-based; conditions: after 10, 20, 40 and 60 minutes at all dilutions 1:100, 1:200, 1:400, 1:800
Procedure: as §1

[4] = tested on: Escherichia coli; test: Antimicrobial screening, agar dilution method; type: cell-based; conditions: after 10, 20, 40 and 60 minutes at all dilutions 1:100, 1:200, 1:400, 1:800
Procedure: as §1

O=C1Oc2ncccc2-c2c(c3c4ccccc4c(=O)c3c3c2c(=O)c2ccccc23)C(=O)c2ccccc21 [2-benzo-[3,4-b]pyridine-[b,g]indeno[1′,2′:3,4]fluoreno-[1,2-d]oxonine-5,11,16,21-tetraone]
melting point: 270 to 271 °C
inhibition activity [1]: highest inhibition activity
inhibition activity [2]: highest inhibition activity
inhibition activity [3]: highest inhibition activity
inhibition activity [4]: highest inhibition activity
